Assays:
Test in all cases: KinaseProfiler panel
Assay type in all cases: biochemical
Conditions in all cases: activity remaining
[1] = molecular target: ARK5(h) (Homo sapiens (Human), UniProt O60285); parameters: dose or concentration left out as unconfirmed
[2] = molecular target: Aurora-B(h) (Homo sapiens (Human), UniProt Q96GD4); parameters: dose or concentration left out as unconfirmed
[3] = molecular target: CaMKIIβ(h) (Homo sapiens (Human), UniProt Q13554); parameters: dose or concentration left out as unconfirmed
CaMKIIβ(h), sequence (Q13554 whole entry): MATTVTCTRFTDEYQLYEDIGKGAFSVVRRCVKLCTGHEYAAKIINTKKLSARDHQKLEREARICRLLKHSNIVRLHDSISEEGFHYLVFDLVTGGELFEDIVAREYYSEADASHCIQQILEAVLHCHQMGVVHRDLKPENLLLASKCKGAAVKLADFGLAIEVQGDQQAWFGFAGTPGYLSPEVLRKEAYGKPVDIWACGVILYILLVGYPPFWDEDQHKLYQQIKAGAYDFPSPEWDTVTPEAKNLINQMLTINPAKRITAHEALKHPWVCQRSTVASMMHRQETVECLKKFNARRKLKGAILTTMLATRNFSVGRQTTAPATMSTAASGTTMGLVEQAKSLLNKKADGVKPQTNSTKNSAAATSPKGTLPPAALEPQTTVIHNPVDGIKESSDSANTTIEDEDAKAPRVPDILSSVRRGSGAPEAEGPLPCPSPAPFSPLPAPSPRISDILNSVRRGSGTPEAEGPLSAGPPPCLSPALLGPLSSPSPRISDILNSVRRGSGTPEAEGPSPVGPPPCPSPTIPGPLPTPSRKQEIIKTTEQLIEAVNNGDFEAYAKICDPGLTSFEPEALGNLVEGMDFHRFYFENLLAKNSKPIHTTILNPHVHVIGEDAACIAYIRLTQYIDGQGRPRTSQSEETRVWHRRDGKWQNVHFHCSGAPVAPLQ

[4] = molecular target: CK1γ3(h) (Homo sapiens (Human), UniProt Q9Y6M4); parameters: dose or concentration left out as unconfirmed
CK1γ3(h), sequence (Q9Y6M4 whole entry): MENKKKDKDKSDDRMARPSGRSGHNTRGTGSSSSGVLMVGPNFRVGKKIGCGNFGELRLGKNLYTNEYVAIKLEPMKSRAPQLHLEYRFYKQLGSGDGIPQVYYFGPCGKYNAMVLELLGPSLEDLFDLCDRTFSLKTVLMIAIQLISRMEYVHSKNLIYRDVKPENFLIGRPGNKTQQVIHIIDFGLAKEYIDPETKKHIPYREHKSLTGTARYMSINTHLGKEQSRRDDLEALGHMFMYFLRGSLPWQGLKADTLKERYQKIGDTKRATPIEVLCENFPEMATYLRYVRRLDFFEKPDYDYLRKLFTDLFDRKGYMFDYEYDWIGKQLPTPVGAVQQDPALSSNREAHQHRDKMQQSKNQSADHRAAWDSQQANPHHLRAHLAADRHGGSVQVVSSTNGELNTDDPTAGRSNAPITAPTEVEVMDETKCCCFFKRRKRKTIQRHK

[5] = molecular target: HIPK2(h) (Homo sapiens (Human), UniProt Q9H2X6); parameters: dose or concentration left out as unconfirmed
HIPK2(h), sequence (Q9H2X6 whole entry): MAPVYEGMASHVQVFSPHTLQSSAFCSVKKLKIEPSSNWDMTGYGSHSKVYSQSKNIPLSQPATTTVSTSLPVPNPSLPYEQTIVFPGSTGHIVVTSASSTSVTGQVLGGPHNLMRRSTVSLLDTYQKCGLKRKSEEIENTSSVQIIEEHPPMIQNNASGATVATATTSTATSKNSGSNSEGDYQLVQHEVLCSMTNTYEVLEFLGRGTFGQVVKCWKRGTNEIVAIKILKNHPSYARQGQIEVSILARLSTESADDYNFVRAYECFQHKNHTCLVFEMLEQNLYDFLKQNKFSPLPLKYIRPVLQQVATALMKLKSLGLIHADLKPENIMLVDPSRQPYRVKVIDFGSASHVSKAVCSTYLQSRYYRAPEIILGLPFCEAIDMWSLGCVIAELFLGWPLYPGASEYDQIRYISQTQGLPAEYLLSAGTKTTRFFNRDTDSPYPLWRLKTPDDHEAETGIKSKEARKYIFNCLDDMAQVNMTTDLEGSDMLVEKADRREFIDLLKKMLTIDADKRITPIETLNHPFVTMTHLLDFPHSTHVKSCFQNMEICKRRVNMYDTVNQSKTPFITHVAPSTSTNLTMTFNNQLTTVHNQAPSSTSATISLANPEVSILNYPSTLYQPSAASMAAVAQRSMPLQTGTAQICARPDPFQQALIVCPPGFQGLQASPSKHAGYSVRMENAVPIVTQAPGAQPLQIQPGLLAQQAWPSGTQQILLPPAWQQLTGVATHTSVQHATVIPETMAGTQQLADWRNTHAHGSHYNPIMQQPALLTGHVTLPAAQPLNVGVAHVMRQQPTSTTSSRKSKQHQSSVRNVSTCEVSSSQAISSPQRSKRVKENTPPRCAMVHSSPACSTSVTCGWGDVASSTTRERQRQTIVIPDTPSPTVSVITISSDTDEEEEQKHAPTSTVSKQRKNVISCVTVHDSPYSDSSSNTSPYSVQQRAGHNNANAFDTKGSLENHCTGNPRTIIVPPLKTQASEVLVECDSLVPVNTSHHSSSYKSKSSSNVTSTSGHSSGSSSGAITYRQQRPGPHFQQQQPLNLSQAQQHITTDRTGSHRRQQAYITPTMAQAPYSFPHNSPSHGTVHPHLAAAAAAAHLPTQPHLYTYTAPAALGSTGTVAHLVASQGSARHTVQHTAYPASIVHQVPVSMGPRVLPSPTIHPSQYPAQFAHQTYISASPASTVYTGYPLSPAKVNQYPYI

[6] = molecular target: HRI(h) (Homo sapiens (Human), UniProt Q9BQI3); parameters: dose or concentration left out as unconfirmed
[7] = molecular target: MAPK2(h) (Homo sapiens (Human), UniProt P28482); parameters: dose or concentration left out as unconfirmed
MAPK2(h), sequence (P28482 whole entry): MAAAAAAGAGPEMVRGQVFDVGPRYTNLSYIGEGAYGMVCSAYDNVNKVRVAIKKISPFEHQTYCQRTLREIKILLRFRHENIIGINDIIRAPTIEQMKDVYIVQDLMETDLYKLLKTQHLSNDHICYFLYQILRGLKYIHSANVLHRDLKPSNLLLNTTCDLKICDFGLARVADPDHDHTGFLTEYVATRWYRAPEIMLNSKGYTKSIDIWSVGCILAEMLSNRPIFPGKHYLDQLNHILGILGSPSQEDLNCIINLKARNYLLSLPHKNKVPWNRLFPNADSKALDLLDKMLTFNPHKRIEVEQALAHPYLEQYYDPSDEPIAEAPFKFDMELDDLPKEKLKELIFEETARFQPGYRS

[8] = molecular target: MRCKβ(h) (Homo sapiens (Human), UniProt Q9Y5S2); parameters: dose or concentration left out as unconfirmed
[9] = molecular target: PI3KC2g(h) (Homo sapiens (Human), UniProt O75747)
[10] = molecular target: PKCγ(h) (Homo sapiens (Human), UniProt P05129); parameters: dose or concentration left out as unconfirmed
[11] = molecular target: STK32B(h) (Homo sapiens (Human), UniProt Q9NY57); parameters: dose or concentration left out as unconfirmed
[12] = molecular target: STK39(h) (Homo sapiens (Human), UniProt Q9UEW8)
[13] = molecular target: TNIK(h) (Homo sapiens (Human), UniProt Q9UKE5)
TNIK(h), sequence (Q9UKE5 whole entry): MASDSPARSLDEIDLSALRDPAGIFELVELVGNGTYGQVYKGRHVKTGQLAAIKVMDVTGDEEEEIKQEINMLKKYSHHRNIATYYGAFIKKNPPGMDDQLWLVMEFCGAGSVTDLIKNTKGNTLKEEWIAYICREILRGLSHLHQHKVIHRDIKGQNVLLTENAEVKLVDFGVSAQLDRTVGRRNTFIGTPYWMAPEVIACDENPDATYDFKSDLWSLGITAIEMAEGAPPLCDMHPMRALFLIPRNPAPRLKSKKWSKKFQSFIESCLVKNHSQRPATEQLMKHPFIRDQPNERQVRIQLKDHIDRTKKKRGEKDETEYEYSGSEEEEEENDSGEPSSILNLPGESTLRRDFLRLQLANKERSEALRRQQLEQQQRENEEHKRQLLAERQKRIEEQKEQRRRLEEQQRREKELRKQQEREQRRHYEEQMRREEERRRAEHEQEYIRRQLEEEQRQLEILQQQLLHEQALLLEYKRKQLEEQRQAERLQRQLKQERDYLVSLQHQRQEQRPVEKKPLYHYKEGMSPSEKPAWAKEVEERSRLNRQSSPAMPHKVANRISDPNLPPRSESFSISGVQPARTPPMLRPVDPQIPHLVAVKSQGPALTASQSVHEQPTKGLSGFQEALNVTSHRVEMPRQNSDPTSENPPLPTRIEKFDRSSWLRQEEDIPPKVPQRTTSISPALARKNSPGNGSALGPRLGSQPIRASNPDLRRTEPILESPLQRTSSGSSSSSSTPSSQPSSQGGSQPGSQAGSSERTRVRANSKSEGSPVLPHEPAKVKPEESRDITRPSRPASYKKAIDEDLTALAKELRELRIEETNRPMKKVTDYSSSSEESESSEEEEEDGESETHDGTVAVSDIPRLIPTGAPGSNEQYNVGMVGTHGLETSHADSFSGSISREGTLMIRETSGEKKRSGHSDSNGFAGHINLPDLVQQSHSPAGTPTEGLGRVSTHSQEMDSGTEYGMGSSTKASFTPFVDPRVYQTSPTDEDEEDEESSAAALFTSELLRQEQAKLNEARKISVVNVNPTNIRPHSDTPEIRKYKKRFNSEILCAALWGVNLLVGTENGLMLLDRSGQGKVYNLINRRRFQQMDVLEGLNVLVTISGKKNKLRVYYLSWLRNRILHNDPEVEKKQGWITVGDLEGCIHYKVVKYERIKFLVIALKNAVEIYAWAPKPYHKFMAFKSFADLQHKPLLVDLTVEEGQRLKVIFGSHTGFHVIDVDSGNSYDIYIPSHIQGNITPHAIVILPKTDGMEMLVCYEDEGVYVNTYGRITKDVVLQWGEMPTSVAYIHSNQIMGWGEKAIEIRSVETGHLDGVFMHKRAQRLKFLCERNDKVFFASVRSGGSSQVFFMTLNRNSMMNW

[14] = molecular target: TSSK3(h) (Homo sapiens (Human), UniProt Q96PN8); parameters: dose or concentration left out as unconfirmed
TSSK3(h), sequence (Q96PN8 whole entry): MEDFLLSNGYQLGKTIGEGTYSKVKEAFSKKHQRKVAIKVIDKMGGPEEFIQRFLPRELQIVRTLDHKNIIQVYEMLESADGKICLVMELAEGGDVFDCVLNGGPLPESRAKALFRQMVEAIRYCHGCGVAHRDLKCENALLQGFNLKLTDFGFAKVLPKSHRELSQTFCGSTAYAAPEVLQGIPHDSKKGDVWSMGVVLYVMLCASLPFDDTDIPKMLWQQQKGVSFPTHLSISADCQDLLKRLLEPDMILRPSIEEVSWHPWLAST

Aurora-B(h), sequence (Q96GD4 whole entry): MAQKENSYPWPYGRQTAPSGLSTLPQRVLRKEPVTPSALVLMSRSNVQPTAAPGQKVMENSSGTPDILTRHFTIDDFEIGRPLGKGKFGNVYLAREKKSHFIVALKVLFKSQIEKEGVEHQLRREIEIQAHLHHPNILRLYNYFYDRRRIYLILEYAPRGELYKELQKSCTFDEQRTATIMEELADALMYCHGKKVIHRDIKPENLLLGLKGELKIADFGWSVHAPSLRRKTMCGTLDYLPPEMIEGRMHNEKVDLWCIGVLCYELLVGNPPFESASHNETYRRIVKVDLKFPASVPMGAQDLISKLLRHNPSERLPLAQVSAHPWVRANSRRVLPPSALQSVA

SMILES: Cc1cc2c(-c3ccc(NC(=O)[C@H](N)CC(C)(C)C)cc3C)ccnc2[nH]1 [Compound F-90, (2R)-2-Amino-4,4-dimethyl-N-[3-methyl-4-(2-methyl-1H-pyrrolo[2,3-b]pyridin-4-yl)phenyl]pentanamide]
- % Activity [1]: 85%
- % Activity [2]: 109%
- % Activity [3]: 93%
- % Activity [4]: 84%
- % Activity [5]: 105%
- % Activity [6]: 80%
- % Activity [7]: 109%
- % Activity [8]: 100%
- % Activity [9]: 103%
- % Activity [10]: 97%
- % Activity [11]: 115%
- % Activity [12]: 102%
- % Activity [13]: 93%
- % Activity [14]: 96%
